The source of these data is patent US20150164824A1, “METHODS AND COMPOSITIONS USEFUL FOR IMPROVING BONE AND JOINT HEALTH” (ABBOTT LABORATORIES, priority 2012, published 2015).

The test system of assay [1] is Human osteoclast precursors. In words: OsteoLyse assay: osteoclast differentiation and collagen degradation in vitro. It counts as cell-based. As to conditions: relative to standard control wells (100%); day seven of culture; FIG. 1. The protocol: A 96-well OsteoLyse™ assay system (commercially available from Lonza Biosciences, Walkersville, Md.) was used for this evaluation. Specifically, a 96-well OsteoLyse™ plate was coated with fluorophore-derivatized human bone matrix (europium conjugated collagen). Human osteoclast precursors, at a density of 10,000/200 μl of differentiation medium (containing M-CSF and RANK Ligand) were seeded onto the surface of the plate. Triplicate cell culture wells were treated with one of: Curcumin in DMSO; Vitamin K2 in ethanol; combination of Curcumin and Vitamin K2; and alendronate (control). Cell culture wells with only differentiation medium were treated as standard control wells. After six days of culture, old medium was removed and 200 μl of fresh differentiation medium was added to all wells. Twenty-four hours later, on day seven of culture, 10 μl of medium supernatant was used for fluorescence measurement. For the measurement, 10 μl of medium supernatant was added to 100 μl of fluorophore-releasing agent (Lonza Bioscience, Walkersville, Md.) in a black-walled 96-well plate. The samples were briefly mixed and fluorescence was determined using a time-resolved fluorescence fluorimeter (Spectramax M5, available from Molecular Devices, Sunnyvale, Calif., with excitation at 340 nm and emission at 615 nm) over a 400-microsecond time period after an initial delay of 400 microseconds. Osteoclast differentiation in a standard control cell culture well was assumed to be 100% and relative osteoclast differentiation, with respect to control wells, in other cell culture wells was calculated and plotted on the bar graph shown in FIG. 1.

Assay [2] concerns Primary human osteoclast precursors. In words: OsteoAssay plate / CalciFluor assay: bone resorption by osteoclasts. It is filed as cell-based. As to conditions: relative to standard control cells; calcium release, day eight of culture; FIG. 2. How it is done:
A 96-well OsteoAssay™ plate (commercially available from Lonza Biosciences, Walkersville, Md.) was used for this evaluation. Specially, a 96-well OsteoAssay™ plate was coated with a thin-layer of adherent human bone particles. Primary human osteoclast precursors, at a density of 10,000/200 μl of differentiation medium (containing M-CSF and RANK Ligand), were seeded onto the surface of the plate. Triplicate cell culture wells were treated with one of: Curcumin in DMSO; Vitamin K2 in ethanol; combination of Curcumin and Vitamin K2; and alendronate (control). Cell culture wells with only differentiation medium were treated as standard control wells. After six days of culture, old medium was removed and 200 μl of fresh basal resorption medium containing M-CSF and RANK Ligand was added to all wells. Forty-eight hours later, on day eight of culture, 10 μl of medium supernatant was used for calcifluor assay. […] The samples were briefly mixed and fluorescence was determined using a fluorimeter (Spectramax M5, available from Molecular Devices, Sunnyvale, Calif., with excitation at 551 nm and emission at 577 nm). The concentration of calcium in each well was calculated based on the standard curve. […] The relative percentage inhibition of bone resorption, with respect to standard control cells, was calculated and plotted on the bar graph as shown in FIG. 2.

For `NCCCC(O)(P(=O)(O)O)P(=O)(O)O` [Alendronate, reference compound], the “inhibition of osteoclast differentiation” value in assay [1] is 53.6%.

Take `COc1cc(/C=C/C(=O)CC(=O)/C=C/c2ccc(O)c(OC)c2)ccc1O` [Curcumin, (1E,6E)-1,7-bis(4-hydroxy-3-methoxyphenyl)-1,6-heptadiene-3,5-dione]: the “inhibition of osteoclast differentiation” value in assay [1] is reported as “did not significantly inhibit”. For the same molecule, the “inhibition of bone resorption” value in assay [2] amounted to 39.7%.

In the case of menaquinone [Vitamin K2], in assay [1], the “inhibition of osteoclast differentiation” value was “did not significantly inhibit”. Also, the “inhibition of bone resorption” value in assay [2] was found to be 31.9%.
